Reference: patent publication US11006631B2, “Substituted pyrimidinyloxy pyridine derivatives as herbicides” (FMC Corporation, priority 2015, dated 2021)

Experiments:
Assay type in all cases: in vivo
[1] = system: ryegrass, Italian (Italian ryegrass, Lolium multiflorum); assay: Test A preemergence, ryegrass, Italian; conditions: 0 to 100 scale
How it was run: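 Greenhouse pot test, loam + sand. Preemergence = soil spray at sowing; postemergence = foliar spray, 1–2 leaf stage, 2–10 cm tall. ~10 d, then visual injury vs untreated, 0–100.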

[2] = system: barnyardgrass (Echinochloa crus-galli); assay: Test B flooded paddy test, barnyardgrass; conditions: Flood, 250 g ai/ha; scale of 0 to 100
How it was run: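 2-leaf plants; flood 3 cm over soil; compound into paddy water; depth held. Greenhouse 13–15 d. Visual rating vs controls, 0 (no effect) to 100 (complete control); dash = not tested.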

[3] = system: ryegrass, Italian (Italian ryegrass, Lolium multiflorum); assay: Test C postemergence, ryegrass, Italian
Excerpt: (§1) Seeds of plant species selected from blackgrass (Alopecurus myosuroides), ryegrass, Italian (Italian ryegrass, Lolium multiflorum), wheat (winter wheat, Triticum aestivum), galium (catchweed bedstraw, Galium aparine), corn (Zea mays), crabgrass, large (large crabgrass, Digitaria sanguinalis), foxtail, giant (giant foxtail, Setaria faberii), lambsquarters (Chenopodium album), morningglory (Ipomoea coccinea), nutsedge, yellow (yellow nutsedge, Cyperus esculentus), pigweed (Amaranthus retroflexus), johnsongrass (Sorghum halepense), ragweed (common ragweed, Ambrosia elatior), soybean (Glycine max), barnyardgrass (Echinochloa crus-galli), oilseed rape (Brassica napus), waterhemp (common waterhemp, Amaranthus rudis), chickweed (common chickweed, Stellaria media), oat, wild (wild oat, Avena fatua), kochia (Kochia scoparia), and velvetleaf (Abutilon theophrasti) were planted in pots containing Redi-Earth® planting medium (Scotts Company, 14111 Scottslawn Road, Marysville, Ohio 43041) comprising spaghnum peat moss, vermiculite, wetting agent and starter nutrients and treated with postemergence applications of a test chemical formulated in a non-phytotoxic solvent mixture which included a surfactant. Plants ranged in height from 2 to 18 cm (1- to 4-leaf stage) for postemergence treatments. Treated plants and controls were maintained in a greenhouse for 13 to 15 days, after which time all species were compared to controls and visually evaluated. Plant response ratings, summarized in Table C, are based on a scale of 0 to 100 where 0 is no effect and 100 is complete control. A dash (-) response means no test result.

soybean (Glycine max) = assay: Test C postemergence, soybean
Excerpt: as §1

[4] = system: velvetleaf (Abutilon theophrasti); assay: Test C postemergence, velvetleaf
Excerpt: as §1

## FC(F)c1cc(-c2ncccc2Oc2ncc(Cl)cn2)on1 [Compound 5, 5-chloro-2-[[2-[3-(difluoromethyl)-5-isoxazolyl]-3-pyridinyl]oxy]pyrimidine]
[1]; 31 g ai/ha
  Plant response rating, Ryegrass, Italian: 0
[1]; 125 g ai/ha
  Plant response rating, Ryegrass, Italian: 0
[2]
  Plant response rating, Barnyardgrass: 0
[3]; 16 g ai/ha
  Plant response rating, Ryegrass, Italian: 0
[3]; 31 g ai/ha
  Plant response rating, Ryegrass, Italian: 5
[3]; 62 g ai/ha
  Plant response rating, Ryegrass, Italian: 0
[3]; 125 g ai/ha
  Plant response rating, Ryegrass, Italian: 5
Soybean (Glycine max); 16 g ai/ha
  Plant response rating, Soybean: 60
Soybean (Glycine max); 31 g ai/ha
  Plant response rating, Soybean: 70
Soybean (Glycine max); 62 g ai/ha
  Plant response rating, Soybean: 40
Soybean (Glycine max); 125 g ai/ha
  Plant response rating, Soybean: 90
[4]; 16 g ai/ha
  Plant response rating, Velvetleaf: 40
[4]; 31 g ai/ha
  Plant response rating, Velvetleaf: 50
[4]; 62 g ai/ha
  Plant response rating, Velvetleaf: 70
[4]; 125 g ai/ha
  Plant response rating, Velvetleaf: 60
